Source: publication PMC6615598, “Novel antibiotics effective against gram-positive and -negative multi-resistant bacteria with limited resistance” (PLoS Biology, 2019)
Like-named read-outs stand apart in the source and are kept apart here. Starred links: 1 amine or outer side, 2 acyl side, 3 side chain; linkers in the order of their positions; H or OH if unused. Non-standard residues stand in square brackets, D forms with d. Residues, ends and D or L forms follow the SMILES beside them. azaβ3(1Nal) = O=C(CN(Cc1cccc2ccccc12)N[*:1])[*:2]

Columns and labels:
[1] = tested on: zebrafish embryos; test: Zebrafish embryo quantitative toxicity (size, curvature, cardiac frequency)
Method: Adult fish were kept in 30l aquariums at 27°C ± 2°C under constant light/dark (14:10 h) cycles. The day before the embryos were used, males and females were placed in breeding tanks. The fish were left undisturbed overnight, and the eggs were collected 1 h after the light was turned on the next morning. When the injections of the cyclic peptides started, embryos were transferred into microtiter plates placed at 28°C for 24 h. Peptides were prepared at 1, 10, 20, 40, and 100 mM concentrations in water, and injections were performed into the caudal vein. Each peptide was injected at 1 nl for all concentrations except 100 mM, when 2 nl was injected. Control embryos were injected with 1 nl of water. When the peptides were injected, analysis determined embryo sizes, curvatures, and cardiac frequencies. Peptide concentrations were checked in 10 embryos, and these were divided among 96-well plates and analyzed under a microscope or using a magnifying glass. […] To do this, each peptide was prepared in 0.9% NaCl and injected into the tail veins of 3 male Swiss mice at 1.5, 2.0, 2.5, or 5.0 mg.kg^−1, corresponding, respectively, to calculated blood concentrations of approximately 18.5, 24.5, 31, and 62.0 μM. […] Clinical signs were recorded daily, including any reduced motor activity, piloerection, and redness in the ear lobe, cyanosis, protruding eyeballs, slow or labored breathing, loss of response in the rear legs, convulsions, or death. Body weight was recorded at least once before the beginning of the treatment period and again on the day of treatment, with the satellite group checked once during the observation period. For the groups of mice observed for 7 d, food consumption was measured once during the study. […] Hematology investigations were performed before necropsy for all animals except the satellite ones, whose blood biochemistry parameters were determined before euthanasia. […]

[2] = tested on: MRSA; test: In vivo resistance: kidney extracts plated on plates containing 1- to 8-fold peptide MIC (severe sepsis); format: cell-based, S. aureus; details: kidneys at day 7 after repeated treatments, plates with drug at 2-fold MIC
Method: For 15 d in MHB, MICs were determined daily for each pseudopeptide and their antibiotic controls. This was done using cells from the well in which the compound concentration was one-half of the MIC (1/2MIC). For each compound, the 1/2MIC well from the previous day’s MIC assay plate was re-suspended and the bacteria grown to a density of about 10^8 cells ml−1. The suspension was diluted in MHB or CAMHB (10^6 cells/ml) and then used to determine the MIC of the same compound determined by micro broth dilution. All MIC measurements were performed in duplicate. Aliquots of the 5 × 10^4 cell/ml dilutions for each 1/2MIC well were periodically plated on MHB and incubated at 35°C for 18 h to verify cell density by colony counts and for visual inspection of colony phenotypes. To control compound stability, peptide solution MICs were determined during and at the end of the 15 d and were compared to cells unexposed to antibiotics. In vivo resistance was also assessed in treated mice (1.5 mg.kg^−1) for 4 d (sepsis) or 6 d (skin abscesses). […] For severe sepsis and subcutaneous abscesses, in vivo resistance was determined by plating aliquots of crude kidney extracts or abscesses on plates containing 1-, 2-, 4-, or 8-fold the peptide MICs 7 or 3 d post infections, respectively.

[3] = design: species or system mice; details: mouse, in vivo, iv
Method: Control embryos were injected with 1 nl of water. […] Each animal was checked for mortality twice per day. […] RBCs were washed until the supernatant was clear. […] RBCs in PBS were a negative control without hemolysis.
Supplementary file pbio.3000337.s011.docx: S5 Table Mice toxicity assays. Clinical signs observed on Day 1 after IV administration of each of the peptide and pseudopeptides in sets of 3 mice. Not observed symptoms are marked with a dash. (DOCX) Click here for additional data file.

## CC(C)[C@@H]1NC(=O)[C@H](CCCNC(=N)N)NC(=O)[C@H](CCCNC(=N)N)NC(=O)[C@H](Cc2c[nH]c3ccccc23)NC(=O)[C@H](Cc2ccccc2)NC(=O)[C@H](Cc2ccccc2)NC(=O)[C@H](CCCCN)NC1=O [Pep18] (cyclo(FFWRRVK))
[1]; 1 nl of 1 mM injected
  Cardiac frequency, Mean: 29 heart beat/10 sec
[1]; 1 nl of 10 mM injected
  Cardiac frequency, Mean: 29 heart beat/10 sec
[1]; 1 nl of 20 mM injected
  Cardiac frequency, Mean: 22 heart beat/10 sec

## CC(C)[C@@H]1NC(=O)[C@H](CCCNC(=N)N)NC(=O)[C@H](CCCNC(=N)N)NC(=O)CN(Cc2cccc3ccccc23)NC(=O)[C@H](Cc2ccccc2)NC(=O)CN(Cc2cccc3ccccc23)NC(=O)[C@H](CCCCN)NC1=O [Pep19] (cyclo([azaβ3(1Nal)]F[azaβ3(1Nal)]RRVK))
[2]
  Clones with increased resistance from kidneys: no clones with increased resistances were detected
[3]
  Abdominal breathing, mice with sign: -
  Half-closed eyes, mice with sign: -
  Hindlimbs widespread, mice with sign: 1
  Piloerection, mice with sign: 3
[3]; 2 mg/kg
  Abdominal breathing, mice with sign: -
  Decreased grasping reflex, mice with sign: -
  Dyspnea, mice with sign: -
  Half-closed eyes, mice with sign: -
  Hunched posture, mice with sign: 1
  Hypoactivity, mice with sign: 1
  Hypotonia, mice with sign: -
  Piloerection, mice with sign: 3
  Red-colored ears, mice with sign: -
  Red-colored eyes, mice with sign: -
  Staggering gait, mice with sign: 1
  Sudden startle, mice with sign: -
[3]; […]
  Decreased grasping reflex, mice with sign: -
  Half-closed eyes, mice with sign: -
  Hypotonia, mice with sign: -
  Piloerection, mice with sign: 3
  Red-colored ears, mice with sign: -
  Red-colored eyes, mice with sign: -
